Data from the supplement of paper PMC10733146.

What was measured:
Test in all cases: viability relative to DMSO control (fraction); higher = less drug effect (more viable cells)
Settings in all cases: 48 h
[1] = system: primary AML patient cells (S006)
Summary of the method: (§1)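 Primary mononuclear tumour cells (Ficoll-isolated from blood or bone marrow, or processed lymph node; fresh or cryopreserved) were plated at 4 × 10^4 cells per well in 384-well plates with pre-plated compounds at five concentrations, one well each. Medium was RPMI-1640 with penicillin/streptomycin, L-glutamine and human serum, at 37 °C and 5% CO2 for 48 h. Viability was read as CellTiter-Glo luminescence relative to the median of 16 inner DMSO wells.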

[2] = system: primary AML patient cells (S011)
Summary of the method: as §1

[3] = system: primary AML patient cells (S012)
Summary of the method: as §1

[4] = system: primary AML patient cells (S037)
Summary of the method: as §1

[5] = system: primary AML patient cells (S056)
Summary of the method: as §1

[6] = system: primary AML patient cells (S081)
Summary of the method: as §1

[7] = system: primary AML patient cells (S085)
Summary of the method: as §1

[8] = system: primary BL patient cells (S005)
Summary of the method: as §1

[9] = system: primary CLL patient cells (S031)
Summary of the method: as §1

[10] = system: primary CLL patient cells (S043)
Summary of the method: as §1

[11] = system: primary DLBCL patient cells (S049)
Summary of the method: as §1

[12] = system: primary DLBCL patient cells (S076)
Summary of the method: as §1

[13] = system: primary MCL patient cells (S041)
Summary of the method: as §1

[14] = system: primary MCL patient cells (S063)
Summary of the method: as §1

[15] = system: primary MCL patient cells (S068)
Summary of the method: as §1

[16] = system: primary T-NHL patient cells (S058)
Summary of the method: as §1

[17] = system: primary T-PLL patient cells (S008)
Summary of the method: as §1

In the case of `N#CC[C@H](C1CCCC1)n1cc(-c2ncnc3[nH]ccc23)cn1` [Ruxolitinib], the viability ([1]; 0.024 µM) is reported as 1.04, the viability ([1]; 0.12 µM) is reported as 0.921 and the viability ([1]; 0.6 µM) is reported as 0.963. The viability ([1]; 3 µM) was 0.904, the viability ([1]; 15 µM) was 0.656 and the viability ([2]; 0.024 µM) was 1.26. The viability ([2]; 0.12 µM) was 0.955, the viability ([2]; 0.6 µM) was 1.06 and the viability ([2]; 3 µM) was 0.919. For the same compound, the viability ([2]; 15 µM) was 0.743, the viability ([3]; 0.024 µM) was 0.973 and the viability ([3]; 0.12 µM) was 0.973. The viability ([3]; 0.6 µM) was 1.03, the viability ([3]; 3 µM) was 0.951 and the viability ([3]; 15 µM) was 0.846. It also gave a viability ([4]; 0.024 µM) of 1.02, a viability ([4]; 0.12 µM) of 0.956 and a viability ([4]; 0.6 µM) of 0.989. It also gave a viability ([4]; 3 µM) of 0.97, a viability ([4]; 15 µM) of 0.965 and a viability ([5]; 0.024 µM) of 0.954. The viability ([5]; 0.12 µM) was 0.894, the viability ([5]; 0.6 µM) was 0.814 and the viability ([5]; 3 µM) was 0.891. It also gave a viability ([5]; 15 µM) of 0.69, a viability ([6]; 0.024 µM) of 1.02 and a viability ([6]; 0.12 µM) of 0.9. It also gave a viability ([6]; 0.6 µM) of 0.951, a viability ([6]; 3 µM) of 0.854 and a viability ([6]; 15 µM) of 0.817. The viability ([7]; 0.024 µM) was 1.42, the viability ([7]; 0.12 µM) was 0.921 and the viability ([7]; 0.6 µM) was 0.861. For the same compound, the viability ([7]; 3 µM) was 0.806, the viability ([7]; 15 µM) was 0.651 and the viability ([8]; 0.024 µM) was 1.01. It also gave a viability ([8]; 0.12 µM) of 1.18, a viability ([8]; 0.6 µM) of 0.974 and a viability ([8]; 3 µM) of 1.15. It also gave a viability ([8]; 15 µM) of 1.03, a viability ([9]; 0.024 µM) of 1.06 and a viability ([9]; 0.12 µM) of 1. For the same compound, the viability ([9]; 0.6 µM) was 1.04, the viability ([9]; 3 µM) was 0.896 and the viability ([9]; 15 µM) was 0.689. The viability ([10]; 0.024 µM) was 0.915, the viability ([10]; 0.12 µM) was 1.05 and the viability ([10]; 0.6 µM) was 0.938. It also gave a viability ([10]; 3 µM) of 1.05, a viability ([10]; 15 µM) of 0.966 and a viability ([11]; 0.024 µM) of 1.03. For the same compound, the viability ([11]; 0.12 µM) was 0.91, the viability ([11]; 0.6 µM) was 0.994 and the viability ([11]; 3 µM) was 0.981. It also gave a viability ([11]; 15 µM) of 1, a viability ([12]; 0.024 µM) of 1.05 and a viability ([12]; 0.12 µM) of 0.823. The viability ([12]; 0.6 µM) was 0.82, the viability ([12]; 3 µM) was 0.702 and the viability ([12]; 15 µM) was 0.719. The viability ([13]; 0.024 µM) was 1.02, the viability ([13]; 0.12 µM) was 0.972 and the viability ([13]; 0.6 µM) was 0.997. For the same compound, the viability ([13]; 3 µM) was 1.01, the viability ([13]; 15 µM) was 0.952 and the viability ([14]; 0.024 µM) was 1.02. For the same compound, the viability ([14]; 0.12 µM) was 0.939, the viability ([14]; 0.6 µM) was 0.975 and the viability ([14]; 3 µM) was 0.932. The viability ([14]; 15 µM) was 0.875, the viability ([15]; 0.024 µM) was 0.978 and the viability ([15]; 0.12 µM) was 0.987. For the same compound, the viability ([15]; 0.6 µM) was 0.989, the viability ([15]; 3 µM) was 1.05 and the viability ([15]; 15 µM) was 0.947. It also gave a viability ([16]; 0.024 µM) of 0.983, a viability ([16]; 0.12 µM) of 0.887 and a viability ([16]; 0.6 µM) of 0.924. For the same compound, the viability ([16]; 3 µM) was 0.904, the viability ([16]; 15 µM) was 0.8 and the viability ([17]; 0.024 µM) was 0.966. It also gave a viability ([17]; 0.12 µM) of 1.01, a viability ([17]; 0.6 µM) of 0.97 and a viability ([17]; 3 µM) of 1.09. For the same compound, the viability ([17]; 15 µM) was 0.952.

`C[C@@H](Oc1cc(-c2cnn(C3CCNCC3)c2)cnc1N)c1c(Cl)ccc(F)c1Cl` [Crizotinib] gave a viability ([1]; 0.024 µM) of 0.944, a viability ([1]; 0.12 µM) of 0.926 and a viability ([1]; 0.6 µM) of 0.695. For the same compound, the viability ([1]; 3 µM) was 0.491, the viability ([1]; 15 µM) was 0.18 and the viability ([2]; 0.024 µM) was 0.996. It also gave a viability ([2]; 0.12 µM) of 1.04, a viability ([2]; 0.6 µM) of 0.822 and a viability ([2]; 3 µM) of 0.358. It also gave a viability ([2]; 15 µM) of 0.0468, a viability ([3]; 0.024 µM) of 1 and a viability ([3]; 0.12 µM) of 1.06. For the same compound, the viability ([3]; 0.6 µM) was 0.999, the viability ([3]; 3 µM) was 0.992 and the viability ([3]; 15 µM) was 0.163. The viability ([4]; 0.024 µM) was 0.974, the viability ([4]; 0.12 µM) was 0.982 and the viability ([4]; 0.6 µM) was 1.01. The viability ([4]; 3 µM) was 0.937, the viability ([4]; 15 µM) was 0.586 and the viability ([5]; 0.024 µM) was 1.13. For the same compound, the viability ([5]; 0.12 µM) was 0.919, the viability ([5]; 0.6 µM) was 1.07 and the viability ([5]; 3 µM) was 0.857. The viability ([5]; 15 µM) was 0.084, the viability ([6]; 0.024 µM) was 0.9 and the viability ([6]; 0.12 µM) was 0.922. The viability ([6]; 0.6 µM) was 0.895, the viability ([6]; 3 µM) was 0.85 and the viability ([6]; 15 µM) was 0.386. For the same compound, the viability ([7]; 0.024 µM) was 1.04, the viability ([7]; 0.12 µM) was 1.02 and the viability ([7]; 0.6 µM) was 0.822. It also gave a viability ([7]; 3 µM) of 0.434, a viability ([7]; 15 µM) of 0.18 and a viability ([8]; 0.024 µM) of 0.975. For the same compound, the viability ([8]; 0.12 µM) was 0.986, the viability ([8]; 0.6 µM) was 0.905 and the viability ([8]; 3 µM) was 0.766. For the same compound, the viability ([8]; 15 µM) was 0.309, the viability ([9]; 0.024 µM) was 1.1 and the viability ([9]; 0.12 µM) was 1.08. The viability ([9]; 0.6 µM) was 1.12, the viability ([9]; 3 µM) was 0.712 and the viability ([9]; 15 µM) was 0.194. It also gave a viability ([10]; 0.024 µM) of 0.95, a viability ([10]; 0.12 µM) of 0.977 and a viability ([10]; 0.6 µM) of 0.949. For the same compound, the viability ([10]; 3 µM) was 0.772, the viability ([10]; 15 µM) was 0.4 and the viability ([11]; 0.024 µM) was 1.04. For the same compound, the viability ([11]; 0.12 µM) was 1.08, the viability ([11]; 0.6 µM) was 1.04 and the viability ([11]; 3 µM) was 0.98. For the same compound, the viability ([11]; 15 µM) was 0.0442, the viability ([12]; 0.024 µM) was 0.938 and the viability ([12]; 0.12 µM) was 1.03. The viability ([12]; 0.6 µM) was 0.999, the viability ([12]; 3 µM) was 0.77 and the viability ([12]; 15 µM) was 0.17. It also gave a viability ([13]; 0.024 µM) of 0.97, a viability ([13]; 0.12 µM) of 1 and a viability ([13]; 0.6 µM) of 0.879. For the same compound, the viability ([13]; 3 µM) was 0.79, the viability ([13]; 15 µM) was 0.221 and the viability ([14]; 0.024 µM) was 0.942. The viability ([14]; 0.12 µM) was 1.03, the viability ([14]; 0.6 µM) was 1 and the viability ([14]; 3 µM) was 0.896. It also gave a viability ([14]; 15 µM) of 0.254, a viability ([15]; 0.024 µM) of 0.989 and a viability ([15]; 0.12 µM) of 1.22. For the same compound, the viability ([15]; 0.6 µM) was 1.58, the viability ([15]; 3 µM) was 1.72 and the viability ([15]; 15 µM) was 0.816. The viability ([16]; 0.024 µM) was 0.908, the viability ([16]; 0.12 µM) was 1.01 and the viability ([16]; 0.6 µM) was 0.903. For the same compound, the viability ([16]; 3 µM) was 0.812, the viability ([16]; 15 µM) was 0.335 and the viability ([17]; 0.024 µM) was 0.983. For the same compound, the viability ([17]; 0.12 µM) was 1.02, the viability ([17]; 0.6 µM) was 0.969 and the viability ([17]; 3 µM) was 0.955. The viability ([17]; 15 µM) was 0.655.
